Values after ≈ are worked out from the molar mass of the structure shown.
What was measured:
M. tuberculosis (MTB) = test: Broth dilution MIC against M. tuberculosis isolates; format: cell-based; conditions: Mycobacterium tuberculosis, 168 h
Method: (§1) Testing of new drugs for activity against Mycobacterial infections is carried out in vitro and in vivo in well defined laboratory procedures which have been widely published. The method used to test for biological activity against growing Mycobacterium avium complex (MAC), Mycobacterium tuberculosis (MTB) and Mycobacterium kanasii (MK) are described by A. H. Gonzalez et al. in J. Antimicrob. Chemother. 1989, 24:19-22; S. Majumder and M. H. Cynamon, Amer. Soc. for Microbiology Mtgs, U-4, May 1992, abstract.
(§2) Activity in vitro was determined against clinical isolates of MAC, MTB and MK using a broth dilution method. Mycobacteria were grown for several days in 7H10 broth, ph 6.6, with 10% OADC enrichment and 0.05% Tween 80. Serial two-fold dilutions of antimicrobial drugs were prepared in 7H10 broth at 128 μg/ml and less. Cultures containing a final concentration of approximately 2.5×10^4 to 6.3×10^5 CFU/ml were incubated on a rotary shaker at 37° C. for 7 days and read where the minimum inhibitory concentration was defined as the MIC at the lowest concentration without visual turbidity. JPC7766 in these studies was compared to known active antimicrobial drugs Proguanil (PG), Cycloguanil (CG), Sulfamethazine (SM) and/or Dapsone (DDS).

M. avium (MAC) = test: Broth dilution MIC against Mycobacterium avium complex isolates; format: cell-based; conditions: 168 h
Method: as §1, §2

M. kanasii (MK) = test: Broth dilution MIC against M. kanasii isolate; format: cell-based; conditions: 168 h
Method: as §1, §2

Pneumocystis carinii [1] = test: Prevention of Pneumocystis carinii infection in immunosuppressed rats; format: in vivo; conditions: 125 mg/kg daily
Method: In this method rats are immunosuppressed with high doses of glucocorticosteroids while being protected from bacterial infection by concurrent administration of the antibiotic tetracycline. In a standard evaluation animals are immunosuppressed with steroids and various doses of test compounds are administered for six weeks during which time unprotected animals will develop pneumocystis pneumonitis. The percentage of animals free of the disease represents the effectiveness of a selected dose of test drug.
A customary method to produce pneumocystis in the animals is to administer 2 mg of dexamethasone and 50 mg tetracycline hydrochloride per liter of drinking water. The test compounds are integrated in the food.

Pneumocystis carinii [2] = conditions: 125 mg/kg; cited from earlier work
P. berghei = P. berghei infection in mice, injected vs. oral doses, 50% cure (Table 2)
Excerpt: Comparative tests in vivo in mice against Plasmodium have been carried out. […] Premature deaths of animals (earlier than five days post infection) are considered as indications of toxicity.
These tests systems are described in detail in publications by L. Rane and D. S. Rane, 9th Int. […] Trop. Med. Malaria. (1973) 1:281 (#406) and (2) T. S. Osdedne, P. B. Russell and L. Rane, J. Med. Chem. 1967. 10:431.
In this methodology, groups of 5 or 10 mice are infected with a standard inoculum of a blood-induced P. berghei infection and are treated with a single subcutaneous dose ([…]) of test drug suspended in peanut oil or a single oral dose of test drug suspended in hexamethyl cellulose and Tween. The animals are then observed for a maximum of thirty days. […] Animals surviving for thirty days are considered cured.

CC1(C)N=C(N)N=C(N)N1c1ccc(Cl)cc1 [Cycloguanil]
MIC (M. tuberculosis (MTB); isolate MTB 311): 64 µg/mL (≈ 254 µM)
MIC (M. tuberculosis (MTB); H37RV, isolate MTB H37 Rv): 64 µg/mL (≈ 254 µM)
MIC (M. avium (MAC); isolate MAC LPR): > 128 µg/mL
MIC (M. kanasii (MK)): 64 µg/mL (≈ 254 µM)

Nc1ccc(S(=O)(=O)c2ccc(N)cc2)cc1 [Dapsone]
Efficacy (Pneumocystis carinii [1]): 100%
# infected (Pneumocystis carinii [1]; infected/treated): 0/10
protection from pneumocystis (Pneumocystis carinii [2]): fully effective
MIC (M. avium (MAC); isolate MAC 101): 16 µg/mL (≈ 64.4 µM)
MIC (M. avium (MAC); isolate MAC FAR): 64 µg/mL (≈ 258 µM)
MIC (M. avium (MAC); isolate MAC LPR): 32 µg/mL (≈ 129 µM)

[H]/N=C(\N/C(=N/[H])Nc1ccc(Cl)cc1)NC(C)C [Proguanil]
Toxicity (P. berghei; oral (PO), @ >160 mg/kg): Toxic
50% cures; oral PO ED-50 (P. berghei; single oral dose): No Cures
50% cure; injected SQ ED-50 (P. berghei; subcutaneous, in peanut oil): NO CURES
MIC (M. avium (MAC); isolate MAC 101): > 128 µg/mL
MIC (M. avium (MAC); isolate MAC FAR): 64 µg/mL (≈ 252 µM)
MIC (M. avium (MAC); isolate MAC LPR): 128 µg/mL (≈ 504 µM)

Cc1cc(C)nc(NS(=O)(=O)c2ccc(N)cc2)n1 [Sulfamethazine]
MIC (M. tuberculosis (MTB); isolate MTB 311): 64 µg/mL (≈ 230 µM)
MIC (M. tuberculosis (MTB); H37RV, isolate MTB H37 Rv): 64 µg/mL (≈ 230 µM)
MIC (M. avium (MAC); isolate MAC 101): > 128 µg/mL
MIC (M. avium (MAC); isolate MAC FAR): 16 µg/mL (≈ 57.5 µM)
MIC (M. avium (MAC); isolate MAC LPR): 32 µg/mL (≈ 115 µM)
MIC (M. kanasii (MK)): 64 µg/mL (≈ 230 µM)

CC1(C)N=C(N)N=C(N)N1OCCCOc1cc(Cl)c(Cl)cc1Cl [WR99210]
ED50 (P. berghei; Plasmodium berghei, in Mus musculus, sc, read-out: 50% cure, injected SQ ED-50): 245 mg/kg
Cures (P. berghei; oral (PO), @ 640 mg/kg): No Cures

From patent US5322858A, “N,N'-substituted imidodicarbonimidic diamides derived from hydroxylamines” (Jacobus Pharmaceutical Co. Inc., priority 1992, dated 1994)
